Test results published in patent publication US8518889B2, “Method of treating cancer with antibodies against long-form leukotriene B4 receptor BLT2” (Korea University Research & Business Foundation, priority 2007, dated 2013).

Key:
eosinophil membranes = details: read-out: IC50, inhibits the binding of radiolabeled LTB4 to eosinophil membranes; cited from earlier work
PWR-1E cells [1] = assay: cell cycle analysis / apoptosis measurement; format: cell-based; details: 5 μM, 48 hr
Experimental: After LNCaP cells and PWR-1E cells were treated with 5 μM LY255283 for 48 hr, the cells were fixed with 70% ethanol and stained with Pl. Cell cycle was analyzed using flow cytometry. The cells grown in 6-well cluster dishes were stimulated with 5 μM LY255283 for 48 h in serum free RPMI 1640. The cells which were collected by brief trypsinization were fixed for 12 hr with 70% ethanol at 4° C. The cells were resuspended in PBS containing RNase A (100 μg/ml) and incubated for 30 min at 37° C. The cells were stained with propidium iodide (50 μg/ml) (Sigma). Acquisition and analysis was performed by FACS using Cell Quest Alias software (BD Bioscience).

MCF-7 cells = assay: Western blot analysis of PARP and caspase-9; format: cell-based, human; details: LY255283 10 μM, epirubicin 100 ng/ml
PWR-1E cells [2] = assay: MTT assay, cell viability; format: cell-based; details: increasing concentration, 48 hr, serum free RPMI 1640
Experimental: (§1) The effect of LY255283, BLT2 antagonist, on cell viability was examined by MTT assay. PWR-1E cells were seeded at a density of 1.0×10^4 cells/well and LNCaP cells were seeded at a density of 1.5×10^4 cells/well in 96-well culture dishes. After 36 hr, the medium was replaced with serum free RPMI 1640 and cells were stimulated with DMSO or LY255283 of increasing concentration. MTT (1 mg/mu) was added at 48 hr after LY255283 treatment and after 4 hr of further incubation the medium was replaced with DMSO. Then cells were incubated at room temperature for 10 min. The spectrophotometric absorbance of the samples was determined by using Ultra Multifunctional Microplate Reader at 540 nm. LNCaP cells and PWR-1E cells were stimulated with LY255283 of various concentration in serum free RPM11640.

LNCaP cells [3] = assay: MTT assay, cell viability; format: cell-based, human; details: increasing concentration, 48 hr, serum free RPMI 1640
Experimental: as §1

eosinophil = details: 10 μM; cited from earlier work
LNCaP cells [4] = format: cell-based, human; details: 5 μM, 48 hr
Experimental: DNA fragmentation was shown by the harvesting of total cellular DNA. Cells were grown in 10 cm plates to 70% confluence with 10% FBS-supplemented medium. Then the media was replaced with serum free RPMI 1640 and the cells were treated with 5 μM LY255283 for 48 hr. Cellular DNA from cells was extracted incubating with lysis buffer (1 mM EDTA, 10 mM Tris, 120 mM NaCl, 1% SDS and 100 μg/ml proteinase K, pH 8.0) for 12 hr at 50° C. The lysate was centrifuged for 10 min at 13,000×g to separate the fragment DNA. The supernatant was then extracted twice with phenol/chloroform/isoamyl alcohol and precipitated with absolute ethanol. […] After electrophoresis, gels were stained with ethidium bromide, and the DNA was visualized by UV light.

[5] = test system: 253J-BV bladder cancer cell; assay: mitochondrial membrane potential (JC-1, flow cytometry); format: cell-based, human; details: 48 hr
Experimental: Mitochondrial damage is important to the apoptosis affected by the caspase-9 pathway. To evaluate the effect of LY255283 on the mitochondria membrane potential (MMP), cell were pretreated with the fluorescent mitochondria specific cationic dye, JC-1, and changes in membrane potential were measured by flow cytometry. Cells grown in 6 well-plates for 24 hr washed PBS and incubated in RPMI 1640 with 0.5% FBS containing different concentrations of LY255283 and U75302 for 48 hr. After cells were treated with 5 μg/ml of JC-1 for 30 min. Then removal of JC-1, washed with PBS, harvested by trypsinization, and resuspended in PBS. Sample was measured at 530 nm (FL-1 green) and 590 nm (FL-2 red) using a flow cytometry. […] And because of the loss of mitochondrial membrane potential in a LY255283 treated cells, it was speculated that caspase may play an essential role in the process of apoptosis.

SV-HUC-1 cells [6] = assay: cell cycle analysis (PI, flow cytometry); format: cell-based; details: 48 hr, RPMI 1640 with 0.5% FBS
Experimental: The cells grown in 6-well plate were stimulated with 5 μM and 10 μM LY255283, 1 μM U75302 for 48 h in RPMI 1640 containing 0.5% FBS. The cells which were collected by brief trypsinization were fixed overnight with 70% ethanol at 4° C. The cells were resuspended in PBS containing RNase A (100 μg/ml) and incubated for 30 min at 37° C. The cells were stained with propidium iodide (50 μg/ml) (Sigma). Acquisition and analysis was performed by FACS using Cell Quest Alias software (BD Bioscience). […] Cells were treated with BLT antagonist for 48 hours and the cell cycle population was measured by flow cytometry. In brief, cells were plated in 6 well plate and then treated with LY255283, U75302 for 48 hr. At the end of the treatment, the cells were harvested and then centrifuged. The cells fixed in ice-cold 70% ethanol for 24 hr and centrifuged. The pellet were resuspended in 0.5 ml phosphate-buffered saline (PBS) and incubated with Pl 1 mg/ml treatment for 15 min.

SV-HUC-1 cells [7] = assay: [3H]-thymidine incorporation assay; format: cell-based; details: 48 hr
Experimental: Cells were seed in 96-well plate at the density of 1.0×10^4/well. After 24 hr incubation in RPMI 1640 supplemented with 10% FBS, the media was replaced with RPMI 1640 containing 0.5% FBS for 12 hr. After cells were treated with different concentration BLT antagonists. Then [^3H]-thymidine (1 μCi/ml) (PerkinElmer Life Sciences) was added at 12 hr after antagonists treatment and after 36 hr of further incubation, cells were harvested on the filtermat (PerkinElmer Life Science) and filtermat was dried and packaged in the sample bag (PerkinElmer Life Science). Finally, Betaplate scint (PerkinElmer Life Science) was added to the filtermat, and the radioactivity was counted in a liquid scintillation counter (MicroBeta, Wallac/PerkinElmer). […] LY255283 inhibited proliferation by at least 50% at a concentration of 10 μM at 48 hr.

| Structure (SMILES) | IC50 (eosinophil membranes) | apoptosis in prostate normal cells (PWR-1E cells [1]) | PARP cleavage (MCF-7 cells) | PWR-1E cell viability (MTT) (PWR-1E cells [2]) | LNCaP cell viability (MTT) (LNCaP cells [3]) | inhibit eosinophil chemotaxis (eosinophil) | DNA fragmentation (LNCaP cells [4]) | mitochondria potential ([5]; 10 μM) | increase of green fluorescence (FL-1) compare with control cells ([5]; JC-1, 10 μM) | cell cycle (SV-HUC-1 cells [6]) | inhibition of thymidine incorporation / cell proliferation (SV-HUC-1 cells [7]) |
| --- | --- | --- | --- | --- | --- | --- | --- | --- | --- | --- | --- |
| CCc1cc(C(C)=O)c(O)cc1OCCCCCC(C)(C)c1nnn[nH]1 [LY255283, 1-[5-ethyl-2-hydroxy-4-[[6-methyl-6-(1H-tetrazol-5-yl)heptyl]oxy]phenyl]-ethanone] | 260 nM | but not prostate normal cells | PARP cleavage was detectable | no effect | dose dependent reduction | 80% | A smear of different sizes of DNA fragments was observed | drop in mitochondria potential | about 2.5 fold |  |  |
| CCCCC/C=C\C[C@@H](O)/C=C/c1cccc(C[C@@H](O)CCCCO)n1 [U75302] |  |  |  |  |  |  |  |  |  | not effect | not effect |
